Data from ChEMBL document CHEMBL1201862, “PubChem BioAssay data set” (2004).
Calls of active or inactive are those of the source.

Legend:
[1] = biological target: T1, Short transient receptor potential channel 4 (Mus musculus, UniProt Q9QUQ5); test: calcium entry via TRPC4 opening agents – cell-based, HEK293 TRPC4/mu-opioid, Fluo-4 calcium, dose response (AID 434937); assay type: functional
T1 sequence (Q9QUQ5 whole entry): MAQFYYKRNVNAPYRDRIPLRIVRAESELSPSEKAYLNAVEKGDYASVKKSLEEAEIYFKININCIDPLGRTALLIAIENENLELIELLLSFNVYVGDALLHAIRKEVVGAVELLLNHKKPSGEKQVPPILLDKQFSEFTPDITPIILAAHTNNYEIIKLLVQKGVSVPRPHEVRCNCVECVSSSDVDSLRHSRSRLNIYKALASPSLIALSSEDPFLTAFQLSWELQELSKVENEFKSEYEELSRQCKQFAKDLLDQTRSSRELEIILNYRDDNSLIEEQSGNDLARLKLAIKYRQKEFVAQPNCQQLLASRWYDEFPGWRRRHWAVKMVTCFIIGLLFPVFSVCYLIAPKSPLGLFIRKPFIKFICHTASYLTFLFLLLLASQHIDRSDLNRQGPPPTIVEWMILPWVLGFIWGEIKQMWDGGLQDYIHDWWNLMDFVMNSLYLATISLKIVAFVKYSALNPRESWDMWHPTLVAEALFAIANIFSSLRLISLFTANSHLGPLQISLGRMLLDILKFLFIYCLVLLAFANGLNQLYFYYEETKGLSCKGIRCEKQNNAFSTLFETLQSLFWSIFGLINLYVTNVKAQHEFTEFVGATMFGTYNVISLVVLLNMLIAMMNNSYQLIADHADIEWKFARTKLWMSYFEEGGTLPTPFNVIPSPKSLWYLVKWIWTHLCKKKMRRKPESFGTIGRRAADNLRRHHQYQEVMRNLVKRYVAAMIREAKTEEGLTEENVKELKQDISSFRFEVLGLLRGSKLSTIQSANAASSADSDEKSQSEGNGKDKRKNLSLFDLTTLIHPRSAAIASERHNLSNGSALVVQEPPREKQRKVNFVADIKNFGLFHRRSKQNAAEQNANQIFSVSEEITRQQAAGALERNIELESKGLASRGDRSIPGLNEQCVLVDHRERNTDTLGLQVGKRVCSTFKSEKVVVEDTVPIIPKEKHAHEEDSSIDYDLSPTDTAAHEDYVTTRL

[2] = biological target: T2, High affinity choline transporter 1 (Homo sapiens, UniProt Q9GZV3); test: human choline transporter blockers, potency – cell-based, 5-point CRC, membrane potential dye, dose response (AID 504840); assay type: functional
T2 sequence (Q9GZV3 whole entry): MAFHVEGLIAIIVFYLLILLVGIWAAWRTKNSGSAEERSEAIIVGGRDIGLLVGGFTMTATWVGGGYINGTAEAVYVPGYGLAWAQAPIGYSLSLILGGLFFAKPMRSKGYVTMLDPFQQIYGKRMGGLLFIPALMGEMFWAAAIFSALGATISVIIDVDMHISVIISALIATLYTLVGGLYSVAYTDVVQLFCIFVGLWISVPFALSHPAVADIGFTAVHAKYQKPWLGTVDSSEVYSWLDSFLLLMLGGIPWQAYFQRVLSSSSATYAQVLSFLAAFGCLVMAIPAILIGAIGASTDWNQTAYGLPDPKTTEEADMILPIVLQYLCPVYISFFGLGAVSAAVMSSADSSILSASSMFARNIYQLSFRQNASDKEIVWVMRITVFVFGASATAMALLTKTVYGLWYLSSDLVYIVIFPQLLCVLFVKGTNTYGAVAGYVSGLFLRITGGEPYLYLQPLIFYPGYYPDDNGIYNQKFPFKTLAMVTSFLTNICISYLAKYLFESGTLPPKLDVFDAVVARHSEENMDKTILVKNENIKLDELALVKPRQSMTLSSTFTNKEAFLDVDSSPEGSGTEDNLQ

P388/ADR = test: cells; assay type: functional; conditions: Mus musculus
P388 = test: cells; assay type: functional; conditions: Mus musculus
SN12K1 = test: cells; assay type: functional; conditions: Homo sapiens
[3] = intracellular Trypanosoma cruzi inhibitors in host cells – cell-based, plate reader, cherry-pick samples, set 3, dose response (AID 651818); assay type: functional;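 also: compounds incubated with infected cells for about four days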
cells [4] = assay type: functional, cell-based
cells [5] = assay type: functional, cell-based; remark: listed apart in the source
[6] = biological target: Induced myeloid leukemia cell differentiation protein Mcl-1 (Homo sapiens, UniProt Q07820); assay type: functional
Induced myeloid leukemia cell differentiation protein Mcl-1, sequence (Q07820 whole entry): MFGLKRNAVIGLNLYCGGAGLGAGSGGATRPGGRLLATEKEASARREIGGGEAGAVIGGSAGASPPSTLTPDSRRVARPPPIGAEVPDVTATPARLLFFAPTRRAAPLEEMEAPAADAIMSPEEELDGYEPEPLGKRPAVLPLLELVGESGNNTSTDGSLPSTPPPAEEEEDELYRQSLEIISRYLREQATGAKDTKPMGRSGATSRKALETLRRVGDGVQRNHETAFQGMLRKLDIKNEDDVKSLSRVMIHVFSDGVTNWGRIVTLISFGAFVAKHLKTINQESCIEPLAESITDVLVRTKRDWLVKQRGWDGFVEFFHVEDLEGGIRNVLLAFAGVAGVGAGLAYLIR

Streptococcus = test: GAS UMAA2166 growth inhibition – luminescence, BacTiterGlo, counter-screen for streptokinase expression inhibitor project, dose response (AID 1915); assay type: functional, organism-based;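 also: potency for reduction of bacterial viability or growth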
BJ [7] = test: cells; assay type: functional, cell-based; conditions: Homo sapiens
BJ [8] = test: BJ-TERT fibroblast viability loss – cell-based, RAS-independent, luminescence, dose response (AID 1933); assay type: functional; conditions: Homo sapiens
[9] = DRD fibroblast viability loss – cell-based, non-viral oncogenic, luminescence, dose response (AID 1934); assay type: functional; conditions: Homo sapiens
[10] = tested on: Streptococcus sp. 'group A'; test: Streptococcus pyogenes SK(-)GAS viability under kanamycin – luminescence, BacTiterGlo, confirmation, counter-screen for streptokinase expression inhibitor project, dose response (AID 1900); assay type: functional, organism-based
BJ [11] = test: BJ-TERT-LT-ST fibroblast viability loss – cell-based, RAS-independent, luminescence, dose response (AID 1935); assay type: functional; conditions: Homo sapiens;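 also: BJ fibroblasts immortalized with TERT plus LT and ST oncogenes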
BJ [12] = test: growth inhibition of engineered Ras-driven BJ cells – cell-based, alamar blue fluorescence, cherrypicked samples, dose response (AID 2631); assay type: functional; conditions: Homo sapiens;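 also: confirmatory dose-response assay in RAS-dependent BJ fibroblasts engineered with TERT, LT and ST, with cytotoxicity read by fluorescence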

| Compound | GI50 (P388/ADR) | GI50 (P388) | GI50 (SN12K1) | AC50 [3] | further results |
| --- | --- | --- | --- | --- | --- |
| CN1CCN(C(=O)c2cccn(Cc3c(Cl)cccc3Cl)c2=O)CC1 |  |  |  |  | EC50 [1]: 0.668 µM (active) |
| CN(C)C(CNC(=O)Cc1c(Cl)cccc1Cl)c1ccccc1 (configuration not stated) |  |  |  |  | EC50 [1]: 0.376 µM (active) |
| CN1CCN(S(=O)(=O)c2cccc(C(=O)Nc3ccc(Br)cc3Br)c2)CC1 |  |  |  |  | IC50 [2]: 12.6 µM (active) |
| C[C@]12CC[C@H](O)C=C1CC[C@@H]1[C@@H]2CC[C@]2(C)C(c3ccc(=O)oc3)CC[C@]12O (some centres not stated) | 119 µM (inactive) | 116 µM (inactive) | 0.0136 µM (active) |  |  |
| C=C1C(=O)OC2C1CC1OC2C(C)CCC/C(C)=C\CCC1(C)O (configuration not stated) | 9.66 µM (inactive) | 8.05 µM (inactive) | 10.9 µM (inactive) |  |  |
| CCN(CC)CCCNc1ncc(C)c2[nH]c3ccncc3c12 | 76.9 µM (inactive) | 0.479 µM (active) | 5.56 µM (inactive) |  |  |
| COc1ccc(C(=O)/C(Br)=C/C(=O)O)cc1 | 17.7 µM (inactive) | 11.7 µM (inactive) | 6 µM (inactive) |  |  |
| Cc1ccc(S(=O)(=O)Nc2ccc3c(c2)C(=O)N([C@H](C)CO)C[C@H](C)[C@H](CN(C)S(=O)(=O)c2ccccc2)O3)cc1 |  |  |  | 13.3 µM (active) |  |
| C[C@@H]1CN([C@H](C)CO)C(=O)Cc2cc(NC(=O)Nc3ccc(C(F)(F)F)cc3)ccc2O[C@H]1CN(C)CC1CCCCC1 |  |  |  | 3.27 µM (active) |  |
| COc1ccc(CN(C)C[C@H]2Oc3ccc(NS(=O)(=O)c4ccc(Cl)cc4)cc3CC(=O)N([C@H](C)CO)C[C@H]2C)cc1 |  |  |  | 4.65 µM (active) |  |
| C[C@H](CO)N1C[C@H](C)[C@H](CN(C)Cc2ccc(-c3ccccc3)cc2)Oc2ccc(NC(=O)C3CCCCC3)cc2CC1=O |  |  |  | 2.26 µM (active) |  |
| C[C@H](CO)N1C[C@H](C)[C@H](CN(C)S(=O)(=O)c2ccc(Cl)cc2)Oc2ccc(NC(=O)Nc3ccc(C(F)(F)F)cc3)cc2CC1=O |  |  |  | 3.91 µM (active) |  |
| C[C@@H]1CN([C@@H](C)CO)C(=O)Cc2cc(NC(=O)C3CC3)ccc2O[C@@H]1CN(C)Cc1ccc(C(=O)Nc2ccccc2N)cc1 |  |  |  | 3.26 µM (active) |  |
| CC(C)c1cc(C(=O)NCCc2cccs2)c(N)s1 |  |  |  |  | IC50 (cells [4]): > 29.9 µM (inactive); EC50 (cells [5]): > 29.9 µM (inactive) |
| COc1cc(C2c3cc4c(cc3[C@@H](Nc3cnc5ccccc5c3)C3COC(=O)[C@H]23)OCO4)cc(OC)c1O (some centres not stated) | 0.182 µM (active) | < 0.01 µM (active) | 0.0269 µM (active) |  |  |
| Cc1nn(-c2ccc(Br)cc2)c(O)c1/C=N/c1ccc(S(=O)(=O)Nc2nccs2)cc1 |  |  |  |  | IC50 [6]: 6 µM (active) |
| NCCCNc1ccc2c3c(nn2CCNCCO)-c2c(O)ccc(O)c2C(=O)c13 | 1.21 µM (inactive) | 0.146 µM (active) | 0.167 µM (active) |  |  |
| COc1cccc(N2C(N)=NC(N)=NC2(C)C)c1 |  |  |  |  | EC50 (Streptococcus): 1.42 µM (active); EC50 (BJ [7]): 5.99 µM (inconclusive); EC50 (BJ [8]): > 150 µM (not active); EC50 [9]: 12.6 µM (active); EC50 [10]: 0.355 µM (active); EC50 (BJ [11]): > 150 µM (not active); EC50 (BJ [12]): > 133 µM (inactive) |
